Test results as given in paper PMC8760490, “Discovery of novel furanylbenzamide inhibitors that target oncogenic tyrosine phosphatase SHP2 in leukemia cells” (The Journal of Biological Chemistry, 2021).

Columns and labels:
Assay type in all cases: cell-based
[1] = test system: U-937 AML cells (G60R oncogenic mutation in SHP2); assay: Cell viability (CellTiter-Glo), U-937; conditions: Homo sapiens, U-937, 72 h, 3 days, 0.123 to 30 μM
Excerpt: Oncogenic gain-of-function mutations in SHP2 drive leukemogenesis in a significant number of leukemia patients. However, because of their unique mechanism of action, the existing SHP2 allosteric inhibitors lack activity against the most common SHP2 oncogenic variants. Thus, we tested whether our inhibitors could inhibit the growth of leukemia cells expressing oncogenic SHP2 variants. […] Thus, we tested both SBI-4668 and RMC-4550 on U-937 AML cells, which harbor a G60R oncogenic mutation in SHP2. We treated cells with either SBI-4668 or RMC-4550 at various concentrations, ranging from 0.123 to 30 μM (Fig. 5A). […] We also assessed the effects of SBI-4668 and RMC-4550 on ERK1/2 activation in the SHP2 mutant U-937 cell line. […]
Viability of AML and esophageal carcinoma cells was assessed using the ATP-depletion assay CellTiter-Glo (Promega). Cells were harvested at 1 × 10^6/ml to 2 × 10^6 cells/ml with cell numbers determined by trypan blue using the Countess Cell counter (Thermo Scientific) and resuspended in culture media. […] Luminescence was read on a Tecan Spark Multimode Microplate Reader, and data were analyzed using GraphPad Prism software.

[2] = test system: phospho-ERK1/2 (p-ERK1/2) in U-937 AML cells; assay: p-ERK1/2 immunoblot, U-937; conditions: SBI-4668 1, 3, 10, 30 μM, RMC-4550 1 μM
Excerpt: Oncogenic gain-of-function mutations in SHP2 drive leukemogenesis in a significant number of leukemia patients. However, because of their unique mechanism of action, the existing SHP2 allosteric inhibitors lack activity against the most common SHP2 oncogenic variants. Thus, we tested whether our inhibitors could inhibit the growth of leukemia cells expressing oncogenic SHP2 variants. […] Thus, we tested both SBI-4668 and RMC-4550 on U-937 AML cells, which harbor a G60R oncogenic mutation in SHP2. We treated cells with either SBI-4668 or RMC-4550 at various concentrations, ranging from 0.123 to 30 μM (Fig. 5A). […] We also assessed the effects of SBI-4668 and RMC-4550 on ERK1/2 activation in the SHP2 mutant U-937 cell line. Similar to the immunoblot experiments described for MOLM-13 cells above, U-937 AML cells were treated with either vehicle control (DMSO), SBI-4668 (1, 3, 10, or 30 μM), or with RMC-4550 (1 μM) for 24 h and processed for p-ERK1/2 immunoblot analysis (Fig. 5B).
Cells cultured in RPMI medium were treated as indicated in the legends to the figures. […] Densitometric quantitation of immunoblots was performed using Image Studio Lite Software (LI-COR). Changes of phosphorylated ERK1/2 to total ERK1/2 ratios are expressed as percentage of the vehicle-treated controls. […]

MV4-11 AML cells = assay: Cell viability (CellTiter-Glo), MV4-11; conditions: Homo sapiens, MV4-11, 72 h; 3 days in culture
Protocol: (§1) Inhibition of SHP2 has been reported to inhibit the growth of cancer cells including Kasumi-1 acute myeloid leukemia (AML) and KYSE-520 esophageal cancer cells ([30]). […] Thus, we treated two TNBC cell lines, BT-549 and MDA-MB-468, with SBI-4668 or the SHP2 allosteric inhibitor SHP099 at various concentrations and determined cell viability after 72 h, compared with the vehicle control (Fig. 4C). […] Next, we performed an 11-day colony formation assay with TNBC cells treated with SBI-4668 or SHP099 at 5, 10, or 20 μM (Fig. 4D).
Viability of AML and esophageal carcinoma cells was assessed using the ATP-depletion assay CellTiter-Glo (Promega). Cells were harvested at 1 × 10^6/ml to 2 × 10^6 cells/ml with cell numbers determined by trypan blue using the Countess Cell counter (Thermo Scientific) and resuspended in culture media. About 3000 cells (in 20 μl) were seeded in a 384-well format white and clear-bottom microplate (catalog no.: 781098; Greiner) spotted with test compound or vehicle control (DMSO) using an Echo 555 Liquid Handler. Cells were incubated for 3 days, before 10 μl of CellTiter-Glo reagent mix was added to each well and incubated for 10 min at RT. Luminescence was read on a Tecan Spark Multimode Microplate Reader, and data were analyzed using GraphPad Prism software.

MDA-MB-468 TNBC cells = assay: 11-day colony formation assay, MDA-MB-468; conditions: 5, 10 or 20 μM, 11 days
Protocol: as §1
MDA-MB-468 and […] triple-negative breast cancer cells were maintained in Dulbecco's modified Eagle's medium + 10% FBS supplemented with 1× penicillin–streptomycin/L-glutamine (Omega Scientific). About 1500 cells (in 300 μl) were seeded per well of a standard 24-well tissue culture plate (Falcon) and allowed to adhere for 24 h, before the addition of compound(s) as described. After a further 96 h, media were replaced with fresh media containing the same test compounds and concentrations. After 11 days, media were removed, and cells stained with 0.5% crystal violet (in 20% methanol; Sigma) for 20 min with agitation at 80 rpm. Stain was removed, and plates with stained cells were washed by being submerged in excess deionized water and allowed to air dry overnight before imaging.

For O=C(Nc1ccccc1)c1cc(-c2ccc(/C=C3\Sc4ccccc4C3=O)o2)ccc1O [SBI-4668, (Z)-2-Hydroxy-5-(5-((3-oxobenzo[b]thiophen-2(3H)-ylidene)methyl)furan-2-yl)-N-phenylbenzamide], the IC50 [1] was 6.3 µM, the “p-ERK1/2 levels, U-937, 24 h” value [2] was “dose-dependently inhibited ERK1/2 activation” and the IC50 (MV4-11 AML cells) was 8.2 µM. The “colony formation, MDA-MB-468” value (MDA-MB-468 TNBC cells) was “undetectable”.
